The results in this text go back to patent US20040186129A1, “2-Aroylimidazole compounds for treating cancer” (priority 2001, published 2004).

One data set concerns HL-60/TX1000. In words: In vitro anti-cancer activity against multi-drug resistant cancer cells, MTS assay. The settings on record: Homo sapiens, HL60/TX1000. Format: cell-based. Here is the method: (§1) The cell lines were maintained in RPMI1640(GIBCO) supplemented with 10% FCS, 100 units/ml penicillin, 100 ug/ml streptomycin, and 2 mM L-glutamine. The cells were split every third day and diluted to a concentration of 2×10^5 cells/ml one day before experiment. All experiments were performed on exponentially growing cell culture. Cell densities were 2.5×10^4 cells/ml in all experiment.
(§2) A stock solution of Compound (1) was prepared by dissolving the compound at a concentration of 1 mM in 100% DMSO. Final concentrations were obtained by diluting the stock solution directly into the tissue culture medium. Cells were incubated with varying concentrations of the compounds for 72 hours and the IC50 was determined by MTS (i.e. […]) assay. IC50 stands for the concentration of compound required to inhibit 50% tumor cell growth.
(§3) In vitro activity was determined in two MDR (Multi Drug Resistant) human cancer cell lines. HL-60/TX1000 was isolated in vitro by subculturing HL-60 in progressively higher concentration of Taxol. HL-60/TX1000 cells over-express mdr-1 mRNA and p-glycoprotein, as determined by western blot and immunofluorescence labeling with antiPGP antibodies. The cell is cross-resistant to Taxol, Vincristine, Adriamycin, Etoposide and Doxorubicin. MES-SA/Dx5 was established in the presence of increasing concentrations of Doxorubicin. […] MES-SA/Dx5 was purchased from ATCC.
(§4) The procedure for culturing the cells and assaying cancer cell growth inhibition were as described in Example 12.
(§5) The protocol described in Examples 12-13 was used to assay inhibition by Compound (2)-(12) on the growth of the multidrug resistant cancer cell line MES-SA/DX5 and HL-60/TX1000.
A general note: Tetrazolium assays rely on reduction of a dye to a coloured formazan, in cell work by metabolically active cells.

The next data set relates to MES-SA/DX5. The description is as above. Format: cell-based. The settings on record: Homo sapiens. Here is the method:
as §1, §2, §3, §4, §5

The test system of data set [1] is MDR cell lines (MES-SA/DX5, HL-60/TX1000). The experiment in a line: In vitro anti-cancer activity, summary over both MDR cell lines. Format: cell-based, human. Conditions: Homo sapiens, MES-SA/DX5 and HL-60/TX1000, text summary of Tables 2 and 3; read-out: IC50 against the MDR cell lines. Here is the method: as §1, §2
In vitro activity was determined in two MDR (Multi Drug Resistant) human cancer cell lines. HL-60/TX1000 was isolated in vitro by subculturing HL-60 in progressively higher concentration of Taxol. HL-60/TX1000 cells over-express mdr-1 mRNA and p-glycoprotein, as determined by western blot and immunofluorescence labeling with antiPGP antibodies. The cell is cross-resistant to Taxol, Vincristine, Adriamycin, Etoposide and Doxorubicin. […]

A short description of data set [2]: Body weight of treated tumor bearing mice (signs of toxicity). Format: in vivo, mouse. Here is the method:
(§6) The in vivo anti-cancer efficacy of Compound (2) was assessed in tumor bearing mice using a tumor growth inhibition assay. Human breast tumor (MDA-435) cells were implanted by injection of a tumor cell suspension subcutaneously in the flank of a nude mouse. Treatment of the tumor with an experimental compound began after the tumor had been established (volume was approximately 100 mm^3). The animal then began a multiple injection schedule where the compound was administered orally. Tumors were measured two times a week. During the course of this assay, animals were monitored daily for signs of toxicity including body weight loss.
A dosing solution for compound administration was prepared by dissolving 1 gram of Compound (2) in 10 ml of acetone (HPLC grade), and sonicated for 5 minutes using 550 Sonic Dismembrator. 1.2 equivalents of 1 N HCl aqueous solution were added to the acetone solution which was then sonicated for 5 minutes. All solvent was then evaporated from the solution by using Speed Vac Plus SC 250 DDA over night. The dried powder was used for preparing the dosing solution of Compound (2). 1% Methyl cellulose (MC) vehicle was prepared by dissolving 1.0 gram of Methyl cellulose, 400 cps, U.S.P. (Spectrum Laboratory Products, Cat. # ME136) in 100 mL of H2O. This mixture was then stirred for 12 hours at room temperature to produce a clear 1% MC solution. […]

Data set [3] relates to human breast tumor (MDA435). The experiment in a line: Tumor growth inhibition assay, human breast tumor (MDA435) xenograft model. Type of data set: in vivo, mouse. Here is the method:
as §6
A supplemented media was prepared from 50% DMEM/Dulbecco Modified Eagle Medium (High Glucose), 50% RPMI 1640, 10% FBS/Fetal Bovine Serum (Hybridoma Tested; Sterile Filtered), 1% L-Glutamine, 1% Penicillin-Streptomycin, 1% MEM Sodium Pyruvate, 1% MEM Non-Essential Amino Acids. […]
The flask was washed with 10 ml of sterile room temperature phosphate buffered saline (PBS). […] The supernatant was aspirated and the cell pellet was resuspended in 10 ml of supplemented media and the cells were counted. […]
The above procedure for trypsinizing and centrifuging the cells were followed. The supernatant was aspirated and the cell pellet was resuspended in 10 ml of sterile PBS and the cells were counted. […]
(A xenograft is tissue or cells of one species grown in another, often human tumour cells in immunodeficient mice.)

Setting [4] is: HL-60/TX1000, Table 3, read-out: IC50 (uM) HL-60/TX1000.
The mark [5] stands for this setting: MES-SA/DX5, Table 3, read-out: IC50 (uM) MES-SA/DX5.
[6] abbreviates: HL-60/TX1000, Table 2, read-out: IC50.
The mark [7] stands for this setting: MES-SA/Dx5, MES-SA/DX-5, Table 2, read-out: IC50.

Read-outs that look alike come from different tables or passages of the source.

For `CCC(=O)c1c[nH]c(C(=O)c2cn(Cc3ccc(Cl)cc3)c3ccccc23)n1` [Compound 11], the IC50 in the data set with HL-60/TX1000 (setting [4]) and with MES-SA/DX5 (setting [5]) was 0.5 µM throughout.

For `O=C(c1cccnc1)c1c[nH]c(C(=O)c2cn(Cc3ccc(Cl)cc3)c3ccccc23)n1` [Compound 10, [1-(4-Chlorobenzyl)-1H-indol-3-yl]-[4-(pyridine-3-carbonyl)-1H-imidazol-2-yl]methanone], the IC50 in the data set on HL-60/TX1000 (setting [4]) and with MES-SA/DX5 (setting [5]) was 0.5 µM throughout.

Turning to `COC(=O)c1cnc(C(=O)c2cn(Cc3ccc(Cl)cc3)c3ccccc23)[nH]1` [Compound 8, 2-[1-(4-chloro-benzyl)-1H-indole-3-carbonyl]-3H-imidazole-4-carboxylic acid methyl ester], the IC50 in the data set with HL-60/TX1000 (setting [4]) stood at 0.05 µM; in the data set on MES-SA/DX5 (setting [5]), 0.1 µM.

On to `CC(=O)O[C@H]1C(=O)[C@@]2(C)[C@H]([C@H](OC(=O)c3ccccc3)[C@]3(O)C[C@H](OC(=O)[C@H](O)[C@@H](NC(=O)c4ccccc4)c4ccccc4)C(C)=C1C3(C)C)[C@]1(OC(C)=O)CO[C@@H]1C[C@@H]2O` [Taxol, reference compound], for which the IC50 in the data set on HL-60/TX1000 (setting [6]) and in the data set on MES-SA/DX5 (setting [7]) was 5 µM each time.

In the case of `Cc1cccc2c(C(=O)c3nc4ccncc4[nH]3)cn(Cc3ccc(Cl)cc3)c12` [Compound 5], the values for the IC50 with HL-60/TX1000 (setting [4]) and in the data set with MES-SA/DX5 (setting [5]) were 0.1 µM and 0.5 µM, respectively.

As for `CC1(C)COC(c2cnc(C(=O)c3cn(Cc4ccc(Cl)cc4)c4ccccc34)[nH]2)=N1` [Compound 12, [1-(4-chlorobenzyl)-1H-indol-3-yl]-[5-(4,4-dimethyl-4,5-dihydro-oxazol-2-yl)-1H-imidazo 1-2-yl]-methanone], the IC50 in the data set with HL-60/TX1000 (setting [4]) and in the data set on MES-SA/DX5 (setting [5]) was 0.5 µM in each case.

As to `CC[C@]1(O)C[C@H]2CN(CCc3c([nH]c4ccccc34)[C@@](C(=O)OC)(c3cc4c(cc3OC)N(C=O)[C@H]3[C@@](O)(C(=O)OC)[C@H](OC(C)=O)[C@]5(CC)C=CCN6CC[C@]43[C@@H]65)C2)C1` [Vincristine, reference compound], the IC50 in the data set with HL-60/TX1000 (setting [6]) was 5 µM; in the data set on MES-SA/DX5 (setting [7]), 1 µM; in data set [1], 1000 to 5000 nM.

In the case of `O=C(c1nc(-c2ccccn2)c[nH]1)c1cn(Cc2ccc(Cl)cc2)c2ccccc12` [Compound 9, [1-(4-Chloro-benzyl)-1H-indol-3-yl]-(4-pyridin-2-yl-1H-imidazol-2-yl)-methanone], the IC50 in the data set with HL-60/TX1000 (setting [4]) and with MES-SA/DX5 (setting [5]) was 0.5 µM throughout.

For the compound `O=C(c1nc2ccncc2[nH]1)c1cc(Cc2ccc(Cl)cc2)n2ccccc12` [Compound 7], the IC50 in the data set with HL-60/TX1000 (setting [4]) is 0.05 µM; in the data set on MES-SA/DX5 (setting [5]), 0.5 µM.

Consider `O=C(c1nc2cnccc2[nH]1)c1cn(Cc2ccc(Cl)c(Cl)c2)c2ccccc12` [Compound 3], for which the results for the IC50 in the data set on HL-60/TX1000 (setting [4]) and with MES-SA/DX5 (setting [5]) were 0.04 µM and 0.05 µM, respectively.

Regarding `O=C(c1nc2ccncc2[nH]1)c1cn(Cc2ccc(Cl)cc2)c2cc(F)ccc12` [Compound 6], the IC50 with HL-60/TX1000 (setting [4]) and in the data set on MES-SA/DX5 (setting [5]) was 0.05 µM throughout.

`N#Cc1ccc(Cn2cc(C(=O)c3nc4cnccc4[nH]3)c3ccccc32)cc1` [Compound 2]: the “change in body weight” value in data set [2] (mice treated with Compound (2)) is given as “Little or no change in body weight”. Besides, the loss of weight result in data set [2] (nude mice, 25 mg/kg orally, 3 times a week for 3 weeks) is recorded as “less than 5%”. Moreover, the IC50 with HL-60/TX1000 (setting [4]) and in the data set with MES-SA/DX5 (setting [5]) was 0.05 µM each time. The tumor growth inhibition entry in data set [3] (MDA435 in nude mice, 25 mg/kg orally, 3 times a week for 3 weeks) was “significantly inhibits tumor growth”. For the same compound, in data set [3] (MDA435 tumors in nude mice, administered orally), the “reduction of the volume of tumors” value was “greater than 50%”.

On to `Cc1ccc(Cn2cc(C(=O)c3nc4cnccc4[nH]3)c3ccccc32)cc1` [Compound 4], for which the IC50 with HL-60/TX1000 (setting [4]) and in the data set with MES-SA/DX5 (setting [5]) was 0.05 µM throughout.
